Experimental data taken from patent publication US6358885B1, “Substituted phenylheterocyclic herbicides” (Mississippi State University, priority 1992, dated 2002).

Key:
Test in all cases: Test B preemergence/postemergence greenhouse plant response rating 0 to 10
barley = assay type: in vivo, Hordeum vulgare; settings: for Plant response rating, Barley: 0 to 10 scale
Summary of the method: (§1)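 Planted seeds are treated preemergence with compound dissolved in a non-phytotoxic solvent, while postemergence applications go onto plants of two to eighteen cm. Plants stay in the greenhouse twelve to sixteen days and are then rated visually relative to controls.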

barnyardgrass = assay type: in vivo, Echinochloa crus-galli; settings: for Plant response rating, Barnyardgrass: 0 to 10 scale
Summary of the method: as §1

chickweed = assay type: in vivo, Stellaria media; settings: for Plant response rating, Chickweed: 0 to 10 scale
Summary of the method: as §1

corn = assay type: in vivo, Zea mays; settings: for Plant response rating, Corn: 0 to 10 scale
Summary of the method: as §1

crabgrass = assay type: in vivo, Digitaria spp.; settings: for Plant response rating, Crabgrass: 0 to 10 scale
Summary of the method: as §1

giant foxtail = assay type: in vivo, Setaria faberii; settings: for Plant response rating, Giant foxtail: 0 to 10 scale; for Plant response rating (0 to 10 scale), Giant foxtail: Rate 100 g/ha
Summary of the method: as §1

rape = assay type: in vivo, Brassica napus; settings: for Plant response rating, Rape: 0 to 10 scale; for Plant response rating (0 to 10 scale), Rape: Rate 100 g/ha
Summary of the method: as §1

sorghum = assay type: in vivo, Sorghum bicolor; settings: for Plant response rating, Sorghum: 0 to 10 scale; for Plant response rating (0 to 10 scale), Sorghum: Rate 100 g/ha
Summary of the method: as §1

wheat = assay type: in vivo, Triticum aestivum; settings: for Plant response rating, Wheat: 0 to 10 scale; for Plant response rating (0 to 10 scale), Wheat: Rate 100 g/ha
Summary of the method: as §1

## Clc1ccc(-c2nc3n(c2Cl)CCC=C3)c(Cl)c1 [Compound 1]
barley; POSTEMERGENCE, Rate 50 g/ha
  Plant response rating (0 to 10 scale), Barley: 3
barley; POSTEMERGENCE, Rate 200 g/ha
  Plant response rating, Barley: 3
barley; PREEMERGENCE, Rate 50 g/ha
  Plant response rating, Barley: 0
barley; Rate 200 g/ha, PREEMERGENCE
  Plant response rating, Barley: 0
barnyardgrass; POSTEMERGENCE, Rate 50 g/ha
  Plant response rating (0 to 10 scale), Barnyardgrass: 2
barnyardgrass; POSTEMERGENCE, Rate 200 g/ha
  Plant response rating, Barnyardgrass: 3
barnyardgrass; PREEMERGENCE, Rate 50 g/ha
  Plant response rating, Barnyardgrass: 0
barnyardgrass; Rate 200 g/ha, PREEMERGENCE
  Plant response rating, Barnyardgrass: 0
chickweed; POSTEMERGENCE, Rate 50 g/ha
  Plant response rating (0 to 10 scale), Chickweed: 0
chickweed; POSTEMERGENCE, Rate 200 g/ha
  Plant response rating, Chickweed: 2
chickweed; PREEMERGENCE, Rate 50 g/ha
  Plant response rating, Chickweed: 0
chickweed; Rate 200 g/ha, PREEMERGENCE
  Plant response rating, Chickweed: 0
corn; POSTEMERGENCE, Rate 50 g/ha
  Plant response rating (0 to 10 scale), Corn: 2
corn; POSTEMERGENCE, Rate 200 g/ha
  Plant response rating, Corn: 2
corn; PREEMERGENCE, Rate 50 g/ha
  Plant response rating, Corn: 0
corn; Rate 200 g/ha, PREEMERGENCE
  Plant response rating, Corn: 0
crabgrass; POSTEMERGENCE, Rate 50 g/ha
  Plant response rating (0 to 10 scale), Crabgrass: 2
crabgrass; POSTEMERGENCE, Rate 200 g/ha
  Plant response rating, Crabgrass: 3
crabgrass; PREEMERGENCE, Rate 50 g/ha
  Plant response rating, Crabgrass: 0
crabgrass; Rate 200 g/ha, PREEMERGENCE
  Plant response rating, Crabgrass: 0
Giant foxtail; POSTEMERGENCE, Rate 50 g/ha
  Plant response rating, Giant foxtail: 3
Giant foxtail; POSTEMERGENCE, Rate 200 g/ha
  Plant response rating, Giant foxtail: 3
Giant foxtail; PREEMERGENCE, Rate 50 g/ha
  Plant response rating, Giant foxtail: 0
Giant foxtail; Rate 200 g/ha, PREEMERGENCE
  Plant response rating, Giant foxtail: 0
rape; POSTEMERGENCE, Rate 50 g/ha
  Plant response rating, Rape: 1
rape; POSTEMERGENCE, Rate 200 g/ha
  Plant response rating, Rape: 3
rape; PREEMERGENCE, Rate 50 g/ha
  Plant response rating, Rape: 0
rape; Rate 200 g/ha, PREEMERGENCE
  Plant response rating, Rape: 0
sorghum; POSTEMERGENCE, Rate 50 g/ha
  Plant response rating, Sorghum: 4
sorghum; POSTEMERGENCE, Rate 200 g/ha
  Plant response rating, Sorghum: 4
sorghum; PREEMERGENCE, Rate 50 g/ha
  Plant response rating, Sorghum: 0
sorghum; Rate 200 g/ha, PREEMERGENCE
  Plant response rating, Sorghum: 0
wheat; POSTEMERGENCE, Rate 50 g/ha
  Plant response rating, Wheat: 1
wheat; POSTEMERGENCE, Rate 200 g/ha
  Plant response rating, Wheat: 2
wheat; PREEMERGENCE, Rate 50 g/ha
  Plant response rating, Wheat: 0
wheat; Rate 200 g/ha, PREEMERGENCE
  Plant response rating, Wheat: 0

## Clc1ccc(-c2nc3n(c2Br)CCCC3)c(Cl)c1 [Compound 2]
barley; POSTEMERGENCE, Rate 50 g/ha
  Plant response rating (0 to 10 scale), Barley: 2
barley; POSTEMERGENCE, Rate 100 g/ha
  Plant response rating (0 to 10 scale), Barley: 2
barley; POSTEMERGENCE, Rate 200 g/ha
  Plant response rating, Barley: 3
barley; POSTEMERGENCE, Rate 400 g/ha
  Plant response rating, Barley: 2
barley; PREEMERGENCE, Rate 50 g/ha
  Plant response rating, Barley: 0
barley; PREEMERGENCE, Rate 100 g/ha
  Plant response rating (0 to 10 scale), Barley: 0
barley; PREEMERGENCE, Rate 400 g/ha
  Plant response rating, Barley: 0
barley; Rate 200 g/ha, PREEMERGENCE
  Plant response rating, Barley: 0
barnyardgrass; POSTEMERGENCE, Rate 50 g/ha
  Plant response rating (0 to 10 scale), Barnyardgrass: 3
barnyardgrass; POSTEMERGENCE, Rate 100 g/ha
  Plant response rating (0 to 10 scale), Barnyardgrass: 3
barnyardgrass; POSTEMERGENCE, Rate 200 g/ha
  Plant response rating, Barnyardgrass: 3
barnyardgrass; POSTEMERGENCE, Rate 400 g/ha
  Plant response rating, Barnyardgrass: 5
barnyardgrass; PREEMERGENCE, Rate 50 g/ha
  Plant response rating, Barnyardgrass: 0
barnyardgrass; PREEMERGENCE, Rate 100 g/ha
  Plant response rating (0 to 10 scale), Barnyardgrass: 0
barnyardgrass; PREEMERGENCE, Rate 400 g/ha
  Plant response rating, Barnyardgrass: 2
barnyardgrass; Rate 200 g/ha, PREEMERGENCE
  Plant response rating, Barnyardgrass: 0
chickweed; POSTEMERGENCE, Rate 50 g/ha
  Plant response rating (0 to 10 scale), Chickweed: 1
chickweed; POSTEMERGENCE, Rate 100 g/ha
  Plant response rating (0 to 10 scale), Chickweed: 2
chickweed; POSTEMERGENCE, Rate 200 g/ha
  Plant response rating, Chickweed: 2
chickweed; POSTEMERGENCE, Rate 400 g/ha
  Plant response rating, Chickweed: 2
chickweed; PREEMERGENCE, Rate 50 g/ha
  Plant response rating, Chickweed: 0
chickweed; PREEMERGENCE, Rate 100 g/ha
  Plant response rating (0 to 10 scale), Chickweed: 0
chickweed; PREEMERGENCE, Rate 400 g/ha
  Plant response rating, Chickweed: 0
chickweed; Rate 200 g/ha, PREEMERGENCE
  Plant response rating, Chickweed: 0
corn; POSTEMERGENCE, Rate 50 g/ha
  Plant response rating (0 to 10 scale), Corn: 3
corn; POSTEMERGENCE, Rate 100 g/ha
  Plant response rating (0 to 10 scale), Corn: 3
corn; POSTEMERGENCE, Rate 200 g/ha
  Plant response rating, Corn: 4
corn; POSTEMERGENCE, Rate 400 g/ha
  Plant response rating, Corn: 4
corn; PREEMERGENCE, Rate 50 g/ha
  Plant response rating, Corn: 0
corn; PREEMERGENCE, Rate 100 g/ha
  Plant response rating (0 to 10 scale), Corn: 0
corn; PREEMERGENCE, Rate 400 g/ha
  Plant response rating, Corn: 0
corn; Rate 200 g/ha, PREEMERGENCE
  Plant response rating, Corn: 0
crabgrass; POSTEMERGENCE, Rate 50 g/ha
  Plant response rating (0 to 10 scale), Crabgrass: 3
crabgrass; POSTEMERGENCE, Rate 100 g/ha
  Plant response rating (0 to 10 scale), Crabgrass: 3
crabgrass; POSTEMERGENCE, Rate 200 g/ha
  Plant response rating, Crabgrass: 7
crabgrass; POSTEMERGENCE, Rate 400 g/ha
  Plant response rating, Crabgrass: 7
crabgrass; PREEMERGENCE, Rate 50 g/ha
  Plant response rating, Crabgrass: 0
crabgrass; PREEMERGENCE, Rate 100 g/ha
  Plant response rating (0 to 10 scale), Crabgrass: 0
crabgrass; Rate 200 g/ha, PREEMERGENCE
  Plant response rating, Crabgrass: 0
Giant foxtail; POSTEMERGENCE, Rate 50 g/ha
  Plant response rating, Giant foxtail: 4
Giant foxtail; POSTEMERGENCE
  Plant response rating (0 to 10 scale), Giant foxtail: 4
Giant foxtail; POSTEMERGENCE, Rate 200 g/ha
  Plant response rating, Giant foxtail: 5
Giant foxtail; POSTEMERGENCE, Rate 400 g/ha
  Plant response rating, Giant foxtail: 6
Giant foxtail; PREEMERGENCE, Rate 50 g/ha
  Plant response rating, Giant foxtail: 0
Giant foxtail; PREEMERGENCE
  Plant response rating (0 to 10 scale), Giant foxtail: 0
Giant foxtail; PREEMERGENCE, Rate 400 g/ha
  Plant response rating, Giant foxtail: 7
Giant foxtail; Rate 200 g/ha, PREEMERGENCE
  Plant response rating, Giant foxtail: 0
rape; POSTEMERGENCE, Rate 50 g/ha
  Plant response rating, Rape: 5
rape; POSTEMERGENCE
  Plant response rating (0 to 10 scale), Rape: 3
rape; POSTEMERGENCE, Rate 200 g/ha
  Plant response rating, Rape: 9
rape; POSTEMERGENCE, Rate 400 g/ha
  Plant response rating, Rape: 9
rape; PREEMERGENCE, Rate 50 g/ha
  Plant response rating, Rape: 0
rape; PREEMERGENCE
  Plant response rating (0 to 10 scale), Rape: 0
rape; PREEMERGENCE, Rate 400 g/ha
  Plant response rating, Rape: 0
rape; Rate 200 g/ha, PREEMERGENCE
  Plant response rating, Rape: 0
sorghum; POSTEMERGENCE, Rate 50 g/ha
  Plant response rating, Sorghum: 4
sorghum; POSTEMERGENCE
  Plant response rating (0 to 10 scale), Sorghum: 4
sorghum; POSTEMERGENCE, Rate 200 g/ha
  Plant response rating, Sorghum: 5
sorghum; POSTEMERGENCE, Rate 400 g/ha
  Plant response rating, Sorghum: 5
sorghum; PREEMERGENCE, Rate 50 g/ha
  Plant response rating, Sorghum: 0
sorghum; PREEMERGENCE
  Plant response rating (0 to 10 scale), Sorghum: 0
sorghum; PREEMERGENCE, Rate 400 g/ha
  Plant response rating, Sorghum: 0
sorghum; Rate 200 g/ha, PREEMERGENCE
  Plant response rating, Sorghum: 0
wheat; POSTEMERGENCE, Rate 50 g/ha
  Plant response rating, Wheat: 1
wheat; POSTEMERGENCE
  Plant response rating (0 to 10 scale), Wheat: 2
wheat; POSTEMERGENCE, Rate 200 g/ha
  Plant response rating, Wheat: 2
wheat; POSTEMERGENCE, Rate 400 g/ha
  Plant response rating, Wheat: 2
wheat; PREEMERGENCE, Rate 50 g/ha
  Plant response rating, Wheat: 0
wheat; PREEMERGENCE
  Plant response rating (0 to 10 scale), Wheat: 0
wheat; PREEMERGENCE, Rate 400 g/ha
  Plant response rating, Wheat: 0
wheat; Rate 200 g/ha, PREEMERGENCE
  Plant response rating, Wheat: 0
